Laboratory results published in patent US20260273020A1, “OBESTATIN FOR USE AS ANTINEOPLASTIC AGENT IN THE TREATMENT OF PANCREATIC CANCER” (SERVIZO GALEGO DE SAÚDE, priority 2023, published 2026).

Assays:
[1] = test system: p62, LC3, cleaved caspase 3, Bax, HIF1a; assay: Immunoblot of pancreatic tumors: apoptosis, autophagy, HIF1a; assay type: in vivo, C57BL/6J mice; conditions: obestatin 500 nmol/Kg/72 h
Procedure: FIG. 5. Immunoblot analysis of p62, LC3, cleaved caspase 3, Bax, and HIF1a in the pancreatic tumors of C57BL/6J mice (n=4) orthotopically injected with KPC FC1242 cells and treated with vehicle [NaCl, 0.9% (w/v)] or obestatin (500 nmol/Kg/72 h). Results are expressed as fold of control of the non-treated injected mice [control; mean±SE (*, P<0.05)].
(§1) Mice were weighed at set times over the 15-day period. The sterilized surgical material was used for the tissue extraction. Pancreases and muscles were carefully removed from each animal minimizing contamination with surrounding tissue or mouse hair. Pancreases and muscles were weighed. The skeletal muscles selected were: tibialis anterior, TA; extensor digitorum longus, EDL; gastrocnemius, GAST; soleus, SOL; and diaphragm, DIA. Pancreases were also measured with a scale (cm) and pictures were taken. • Histology—Pancreas samples for histology were fixed in 4% paraformaldehyde in PBS at room temperature overnight. After fixation, samples were dehydrated and embedded in paraffin blocks. For this study, 3-micron sections were cut from each block and placed on pre-cleaned slides (Thermo Fisher Scientific, Waltham, MA, USA). The sectioned tissue slides were covered with a thin layer of paraffin, stoked at 60° C. for 1 hour and stored protected from light at room temperature to preserve the antigenicity of sections. • Immunoblot—For immunoblot analysis, pancreases were immediately frozen in dry ice and stored at −80° C. until use. Tissues were homogenized using a TissueLyser II tissue homogenizer (Qiagen, Hilden, DE), in 200 μL of RIPA lysis buffer at 30 Hz for 3 min. The lysates were clarified by centrifugation (18,000×g, 15 min, 4° C.), and the protein concentration was quantified by the Quantipro™ BCA assay kit (Sigma-Aldrich, St. Louis, MO, US).
Tissues were disrupted and homogenized in ice-cold lysis buffer [50 mM Tris-HCl pH 7.2, 150 mM NaCl, 1 mM EDTA, 1% (v/v) NP-40, 0.25% (w/v) Na-deoxycholate, protease inhibitor cocktail (PIC; 1:100; Sigma Chemical Co., St. Luis, MO, US), phosphatase inhibitor cocktail (PHIC; 1:100; Sigma Chemical Co., St. Luis, MO, US)] with 5 mm stainless steel beads using a TissueLyser (Qiagen, Hilden, DE) at 30 Hz for 3 min. The soluble cell lysates were pre-cleared by centrifuging at 14,000 rpm for 15 min. Supernatants were recovered and the protein was quantified with BCA Protein Assay Kit (Thermo Fisher Scientific, Rockford, IL, US). The same amount of protein for each sample was separated on 7-15% SDS/polyacrylamide gels and transferred to nitrocellulose membranes (Bio-Rad, Hercules, CA, US). The blots were incubated with 5% bovine serum albumin (BSA) in a Tris buffer solution (TBS) containing Tween-20 [TBST; 20 mM Tris-HCl (pH 8.0), 150 mM NaCl, 0.1% (v/v) Tween-20, solution used for all incubation and washing steps] for 1 h. The blots were then incubated with the corresponding primary antibodies and subsequently were incubated with the corresponding peroxidase-conjugated IgG antibody (Table 1). After washing, the signals were visualized using an ECL plus Western Blotting Detection System (Pierce ECL Western Blotting Substrate; Thermo Fisher Scientific, Pierce, Rockford, IL, US). The image processing was performed using the NIH Image Software ImageJ 1.53o (National Institutes of Health, Bethesda, MD, US).

[2] = test system: pERK1/2(T202/Y204), ERK1/2, pAkt(S473), Akt; assay: Immunoblot of tumoral pancreatic tissue: ERK1/2 and Akt; assay type: in vivo, C57BL/6J mice
Procedure: FIG. 4. (A) Analysis and quantification of Ki67 positive proliferative cells by immunohistochemistry in the pancreatic tumors of C57BL/6J mice (n=4) orthotopically injected with KPC FC1242 cells and treated with vehicle [NaCl, 0.9% (w/v)] or obestatin (500 nmol/Kg/72 h). Magnification: 4×. (B) Immunoblot analysis of pERK1/2(T202/Y204), ERK1/2, pAkt(S473), and Akt in tumoral pancreatic tissue. Results are expressed as fold of control of the non-treated injected mice [control; mean±SE (*, P<0.05)].
as §1, with “The sectioned tissue slides were covered with a thin layer of paraffin, stoked at 60° C. for 1 hour and stored protected from light at room temperature to preserve the antigenicity of sections. • Immunoblot—For immunoblot analysis, pancreases were immediately frozen in dry ice and stored at −80° C. until use. Tissues were homogenized using a TissueLyser II tissue homogenizer (Qiagen, Hilden, DE), in 200 μL of RIPA lysis buffer at 30 Hz for 3 min.” left out
Tissues were disrupted and homogenized in ice-cold lysis buffer [50 mM Tris-HCl pH 7.2, 150 mM NaCl, 1 mM EDTA, 1% (v/v) NP-40, 0.25% (w/v) Na-deoxycholate, protease inhibitor cocktail (PIC; 1:100; Sigma Chemical Co., St. Luis, MO, US), phosphatase inhibitor cocktail (PHIC; 1:100; Sigma Chemical Co., St. Luis, MO, US)] with 5 mm stainless steel beads using a TissueLyser (Qiagen, Hilden, DE) at 30 Hz for 3 min. […] Supernatants were recovered and the protein was quantified with BCA Protein Assay Kit (Thermo Fisher Scientific, Rockford, IL, US). […]

RWP1 cells = assay: Proliferation assay, cell counting under chronic obestatin treatment; assay type: cell-based, human
Procedure: (§2) PANC1 cell line was obtained from ECACC (87092802; ECACC, Wiltshire, UK). RWP1 and BxPC3 human pancreatic cancer cell lines were kindly provided by FX Real (Epithelial Carcinogenesis Group, Cancer Cell Biology Programme, Spanish National Cancer Research Centre-CNIO, Madrid, ES). In brief, PANC1 cells were cultured in DMEM (supplemented with 4.5 g/L glucose, 10% FBS, and 1% penicillin/streptomycin), RWP1 and BxPC3 cell lines were maintained in RPMI (supplemented with 10% FBS and 1% penicillin/streptomycin) and incubated in an atmosphere containing 5% CO2 at 37° C. These cells were periodically tested and resulted negative for mycoplasma contamination.
(§3) For the analysis of proliferation the cells were seeded on 12-well plates at an amount of 50,000 cells per well and maintained for 24 h in culture media (see above) to allow attachment. The medium was completely removed and replaced with serum-free media for additional 24 h. Then, cells were treated or not with different doses of obestatin: mouse obestatin (corresponding to SEQ ID NO: 4) for KPC FC1242 and human obestatin (corresponding to SEQ ID NO: 1) for PANC1, RWP1 and BxPC3. The following treatments were used: 0% FBS as negative control, 10% FBS as positive control, 100 nM obestatin, 200 nM obestatin, 100 nM obestatin+10% FBS, and 200 nM obestatin+10% FBS. These treatments were administered every 24 h for three days. Twenty-four h after the last treatment, the cells were trypsinized and manually counted with a Neubauer camera.
(§4) The total cells were calculated using the following equations counting 10 squares: […]
(§5) In all cases, each experiment point was replicated eight times.

PANC1 cells = assay: as above; assay type: cell-based, human
Procedure: as §2, §3, §4, §5

BxPC3 cells = assay: as above; assay type: cell-based, human
Procedure: as §2, §3, §4, §5

[3] = obestatin 500 nmol/Kg/72 h, referenced to non-treated animals
[4] = 100 nM obestatin+10% FBS each 24 h for 72 h
[5] = human obestatin (SEQ ID NO: 1) 100 nM each 24 h for 72 h, serum-free

For obestatin, the “increased expression of HIF1a” value ([1]; compared to control or vehicle-treated animals) was 106.6±17.8%, the “diminution in LC3-I” value ([1]; pancreatic tumors) was 9.2±7.5% and the “increase in cleaved caspase 3” value ([1]; pancreatic tumors) was 264.6±57.7%. For the same substance, the “increase in levels of proapoptotic Bax” value ([1]; pancreatic tumors) was 141.6±28.4%, the “reduction in LC3-II levels” value ([1]; pancreatic tumors) was 21.8±7.3% and the “upregulation in p62” value ([1]; pancreatic tumors) was 75.7±20.8%. For the same substance, the “total expressions of ERK and AKT” value ([2]; Western blotting) was “unchanged”, the “Akt activation augmented, pAkt(S473)” value [2, 3] was 369.5±100.1% and the “reduction in ERK1/2 activation, pERK1/2(T202/Y204)” value [2, 3] was about 50%. The “effect on FBS-mediated proliferation” value (RWP1 cells; [4]) was “significant inhibitory effect”, the “proliferation (number of cells)” value (RWP1 cells; [5]) was “does not activate the proliferation” and the “effect on FBS-mediated proliferation” value (PANC1 cells; [4]) was “significant inhibitory effect”. For the same substance, the “proliferation (number of cells)” value (PANC1 cells; [5]) was “does not activate the proliferation”, the “effect on FBS-mediated proliferation” value (BxPC3 cells; [4]) was “significant inhibitory effect” and the “proliferation (number of cells)” value (BxPC3 cells; [5]) was “does not activate the proliferation”.
